Results reported in BindingDB's records for PubMed 40053382 (Sapienza University of Rome).

How the values were obtained:
[1] = Inhibition of HIV-1 integrase strand transfer activity
[2] = Inhibition of HIV-1 Reverse transcriptase K103N/Y181C double mutant
[3] = Inhibition of HIV-1 Reverse transcriptase L100I/K103N double mutant
[4] = Inhibition of wild type HIV-1 LAI reverse transcriptase
[5] = Inhibition of HIV-1 Reverse transcriptase K103N mutant

Structure (SMILES): CSc1nc(C(C)C)c(CC2CCCCC2)n1COCc1ccccc1
- IC50 [1]: 260 nM

Structure (SMILES): Cc1cc(C#N)cc(C)c1Oc1ncnc(Nc2ccc(C#N)cc2)n1
- IC50 [2]: 25 nM
- IC50 [3]: 49 nM
- IC50 [4]: 1.4 nM
- IC50 [5]: 1.4 nM

Structure (SMILES): CCOCn1c(SC)nc(C(C)C)c1CC1CCCCC1
- IC50 [1]: 250 nM

Structure (SMILES): CSc1nc(C(C)C)c(Cc2ccccc2)n1COCc1ccccc1
- IC50 [1]: 3300 nM

Structure (SMILES): Cc1cc(/C=C/C#N)cc(C)c1Nc1ncnc(Nc2ccc(C#N)cc2)n1
- IC50 [2]: 1 nM
- IC50 [4]: 0.4 nM
- IC50 [5]: 0.3 nM

Structure (SMILES): Cc1cc(C#N)cc(C)c1Nc1ncnc(Nc2ccc(C#N)cc2)n1
- IC50 [2]: 32 nM
- IC50 [4]: 0.4 nM
- IC50 [5]: 0.4 nM

Structure (SMILES): CCc1nc(SC)n(COCc2ccccc2)c1CC1CCCCC1
- IC50 [1]: 400 nM
